The record followed here is patent US20230022841A1, “ISARIDIN CYCLODEPSIPEPTIDE DERIVATIVES, AND PREPARATION AND APPLICATION THEREOF” (Sun Yat-sen University, priority 2022, published 2023).

Experiment [1] has as its system LPS-induced RAW264.7 cells. The experiment in a line: NO release from LPS-induced macrophage RAW264.7 cells (Griess). It is filed as cell-based. The settings on record: Mus musculus, LPS 1 μg/mL, 24 h, Griess reagent, read-out: half maximal inhibitory concentration (IC50), NO release inhibition. On the procedure:
The effect of the compounds I-1 to I-9 and I-13 to I-15 prepared in Example 1 on the NO release from LPS-induced macrophage RAW264.7 cells was investigated to evaluate the anti-inflammatory activity, which was specifically described as follows.
Lipopolysaccharide (LPS); indomethacin (Indomethacin, Indo, positive control); mouse mononuclear macrophages (RAW264.7); dimethyl sulfoxide (DMSO); Methylthiazolyldiphenyl-tetrazolium bromide (MTT, 5 mg/mL); and Griess reagent nitrite measurement kit (Beyotime Biotechnology Co., Ltd).
The compounds were respectively dissolved in DMSO to obtain a series of 10 mM stock solutions, which were diluted with Dulbecco's modified eagle medium (DMEM) to a required concentration (DMSO<2%) for use.
RAW264.7 cells (1×10^5 cells/mL) were inoculated into a 96-well plate at 100 μL per well and incubated at 37° C. and 5% CO2 for 12 h. Different concentrations of samples containing LPS (with a final concentration of 1 μg/mL) were respectively loaded on the plate. […] After that, the absorbance of each well of the 96-well plate at 540 nm was measured with a microplate reader and then plugged into the standard curve to calculate the NO release level. […]
For orientation: Griess reagent forms a coloured azo dye with nitrite.

In experiment [2] the test system is ADP-induced platelet aggregation. The experiment in a line: ADP-induced platelet aggregation in vitro (platelet-rich plasma, turbidimetric method). It is filed as cell-based, Kunming mice. The settings on record: 5 min; mouse platelet-rich plasma, ADP inducer, 37° C., maximum aggregation rate within 5 min; values stated as approximate; read-out: IC50, inhibition of ADP-induced platelet aggregation. On the procedure: Compounds I-1 to I-9 and I-13 to I-15 prepared in Example 1 were tested for their inhibitory effects on the ADP-induced platelet aggregation in vitro to evaluate the anti-thrombotic activities, and the test process was specifically described as follows.
Kunming mice were anesthetized with pentobarbital sodium, and blood was collected from the celiac artery, where the syringe was added with 3.2% sodium citrate for anti-coagulation in advance (a volume ratio of whole blood to the anticoagulant was 9:1). The mixture was gently mixed and centrifuged at 1000 r/min for 10 min to collect the supernatant as the platelet-rich plasma (PRP). The remaining part was centrifuged at 3000 r/min for 10 min to obtain platelet-poor plasma (PPP). […]
For the blank control group, 1% DMSO was mixed with 295 μL of PRP; for the drug group, 5 μL of the isaridin derivatives with different concentrations (a final concentration of 0-100 μM) was mixed with 295 μL of PRP; and regarding the positive control group, aspirin was mixed with plasma to a final concentration of 120 μM. […] Three parallel samples were tested for each group, and the platelet aggregation rate was measured at 37° C. by turbidimetric method, where the maximum aggregation rate within 5 min was recorded.
The platelet aggregation rate was expressed as the maximum platelet aggregation rate, and the results were expressed as the inhibition rate. […]

Turning to `COc1ccc2c(c1)c(CC(=O)O)c(C)n2C(=O)c1ccc(Cl)cc1` [indomethacin], the IC50 in experiment [1] turned out to be 38 µM.
On to `CC(=O)Oc1ccccc1C(=O)O` [aspirin], for which the IC50 in experiment [2] stood at 120 µM.
